Measured values from patent US20020035038A1, “Fungicidal combinations comprising thieno[2,3-d]pyrimidin-4-one” (priority 1998, published 2002).

System: Erysiphe graminis f.sp. hordei
Assay: Leaf-disc-test, efficacy against Erysiphe graminis f.sp. hordei on barley (Example B-2 c)
Assay type: in vivo
Details: single active ingredient, curative application 2 days after inoculation, barley leaf segments, infection in control: 68%
Text: A synergistic effect exists whenever the action of an active ingredient combination is greater than the sum of the actions of the individual components. The action to be expected E for a given active ingredient combination obeys the so-called COLBY formula and can be calculated as follows (COLBY, S. R. “Calculating synergistic and antagonistic responses of herbicide combination”. Weeds, Vol. 15, pages 20-22; 1967): According to Colby, the expected (additive) action of active ingredients I+II using p+q ppm of active ingredient is [formula] If the action actually observed (O) is greater than the expected action (E), then the action of the combination is superadditive, i.e. there is a synergistic effect. Efficacy Against Erysiphe graminis f.sp. hordei on Barley c) Leaf-disc-test Barley plants, cv. “Hasso” were cultivated under greenhouse conditions at 20° C. in TKS-1 standard soil for 10 days. Leaf segments with a length of 10 mm were cut out of the primary leaves and were placed with the upper side up in multiple well plates (24 wells per plate). Each well contains 2 ml of 0.2% water agar+35 ppm benzimidazole. The fungicide treatment was carried out 2 days after inoculation (curative-application) by a total volume of 400 μl that were sprayed with an “air brush” on 4 leaf segments meaning 4 replicates. The inoculated leaf segments were incubated for 1 week in an incubation chamber by 18° C., the first two days in the dark, and the five next days by 12 hours light. After the incubation period, the % leaf attack was estimated with the help of a binocular and the % activity was calculated relative to the check.

| Structure (SMILES) | % activity observed (conc. 0.0025 %) | % activity observed (conc. 0.01 %) | % activity observed (conc. 0.025 %) |
| --- | --- | --- | --- |
| CC(C1CC1)C(O)(Cn1cncn1)c1ccc(Cl)cc1 (stereo not drawn) [cyproconazole] | 36% | – | – |
| CC1COC(Cn2cncn2)(c2ccc(Oc3ccc(Cl)cc3)cc2Cl)O1 (stereo not drawn) [difenoconazole] | – | 0% | 41% |
